Series [1] is described as follows: Water solubility of compound 3 free base and its salts. As to conditions: for solubility in water: free base, thermogravimetric method. The series is classed as physicochemical. An excerpt: HCl, phosphoric acid, tartaric acid, acetic acid, D-glucoronic acid and succinic acid were used to prepare pharmaceutically acceptable salts of compound 3.
Solid or crystalline forms or polymorphs of compounds having formula I can be achieved in the free base.

A short description of series [2]: Solubility of the free base of compound 3 in solvents. The series is classed as physicochemical. The protocol: Typically, water solubilities of the compounds in the form of their respective free base, such as compound 3, are low to none. In an exemplary embodiment, the solubility of the free base form of compound 3 in THF, DMSO and DMF was high but the solubility in group 3 solvents, or water for example, was low. For example, acetone is needed to dissolve the free base at 50° C. […] HCl, phosphoric acid, tartaric acid, acetic acid, D-glucoronic acid and succinic acid were used to prepare pharmaceutically acceptable salts of compound 3.

SMILES strings stand for the structures. Counter-ions that a name gives are not always drawn.

One may read the solubility as how much of the substance goes into solution per volume.

Regarding `COc1ccc(-c2ccnc(Nc3ccc(S(=O)(=O)NCCCN(C)C)cc3)n2)cc1F` [compound 3, N-(3-(dimethylamino)propyl)-4-(4-(3-fluoro-4-methoxyphenyl)pyrimidin-2-ylamino)benzenesulfonamide], the solubility in water result was “little to no water solubility” in series [1] and “not detectable” in series [1] (listed as free base 3). In addition, the “solubility in THF, DMSO and DMF” value in series [2] (THF, DMSO and DMF) is listed as “high”. Further, the “solubility in group 3 solvents, or water” value in series [2] (group 3 solvents, or water) is reported as “low”.
For `COc1ccc(-c2ccnc(Nc3ccc(S(=O)(=O)NCCCN(C)C)cc3)n2)cc1F` [D-glucoronate salt of compound 3], in series [1] (salts of compound 3), the solubility is 5170 µg/mL and the water solubility stood at 5700 µg/mL.
